Literature values in US9585955B2 (priority 2005, dated 2017).

Conditions: 20° C. and 2 atm pressure

[N-]=[N+]=O [Nitrous oxide]
volume of water in which one liter of the gas dissolves: 1.5 L
